Experimental findings from patent EP0024842A1, “Methyl (5-(2-thienylhydroxymethyl)-1H-benzimidazol-2-yl) carbamate, process for its preparation and compositions containing it” (priority 1979, dated 1981) are described below.

One data set has as its system rats. Description: Embryotoxic effect in rats, 'another test' at equimolar doses. Type of data set: in vivo, rat.
For data set [1], the system named is pregnant Sprague-Dawley rats. Description: Embryotoxic activity in pregnant rats (antimitotic test according to Delatour and Richard), dose series. Conditions: orally; for Embryo-toxicity %: daily from the 8th to the 15th day of gestation; for # Fetus: 8th to 15th day of gestation.

Turning to `COC(=O)Nc1nc2ccc(C(O)c3cccs3)cc2[nH]1` (racemic) [I, methyl [5-(2-thienylhydroxymethyl)-lH-benzimidazol-2-yl]-carbamate], the “% (embryotoxic effect)” value with rats (Oral Dose Per Day 5.05 mg/kg) is given as 100%. Further, the values for the Embryo-toxicity % in data set [1] (3.03 mg/kg/day) and in data set [1] (5.05 mg/kg/day) were 12.06% and 100%, respectively.

As to `COC(=O)Nc1nc2ccc(C(=O)c3cccs3)cc2[nH]1` [II, Methyl 5-[(2-thenoyl)-lH-benzimidazol-2-yl]-carbamate], the “% (embryotoxic effect)” value with rats (Oral Dose Per Day 5.02 mg/kg) came to 3.5%. Further, the “Foet./ Implant” value in the data set with rats (Oral Dose Per Day 5.02 mg/kg) is recorded as 55/57. The “# Fetus” value is recorded as 0 in data set [1] (7.5 mg/kg/day, 40 implantations); 0 in data set [1] (15 mg/kg/day, 30 implantations); 0 in data set [1] (30 mg/kg/day, 28 implantations). Also, the Embryo-toxicity % in data set [1] (7.5 mg/kg/day), in data set [1] (15 mg/kg/day) and in data set [1] (30 mg/kg/day) was 100% each time.
